# In US9896441B2 (Lycera Corporation, priority 2014, dated 2018):
# How the values were obtained:
# Gal4-RORγ-LBD = biological target: T1, Gal4-RORγ-LBD (Homo sapiens, UniProt P51449); assay: Gal4-RORγ Luciferase Reporter Assay in HEK-293T Cells; assay type: cell-based; details: HEK-293 cells; for Gal4-RORγ Assay Max Response: maximum response
# T1 construct: expressed in transfected cells
# T1 sequence (P51449 269-508 limits assumed): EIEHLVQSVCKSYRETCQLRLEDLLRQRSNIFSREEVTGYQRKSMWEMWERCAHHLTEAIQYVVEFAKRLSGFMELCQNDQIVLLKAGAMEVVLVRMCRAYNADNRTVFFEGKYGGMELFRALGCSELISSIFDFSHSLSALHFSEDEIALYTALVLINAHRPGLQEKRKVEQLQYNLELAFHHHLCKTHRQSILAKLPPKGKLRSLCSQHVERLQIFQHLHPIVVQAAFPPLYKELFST
# Summary of the method: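 Max Response was taken as the upper plateau of a 4-parameter logistic fit of luciferase signal, normalized to 100 for wells without ursolic acid or compound. Transiently Gal4-RORγ-LBD/Gal4-luc transfected HEK-293 cells carrying […] ursolic acid were incubated with test compounds (0.2% DMSO) overnight at 37 °C and read with One-Glo.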
# RORγ-LBD = biological target: T2, RORγ-LBD (Homo sapiens, UniProt P51449); assay: RORγ-Ligand Binding Domain (LBD) TR-FRET Assay; assay type: biochemical; details: for TR-FRET Assay Max Response: maximum response;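 on TR-FRET Assay Max Response: 665/615 nm signal ratio set to 100 without ursolic acid or test compound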
# T2 construct: made in house; host or cells: SF9 cells (baculovirus); used as diluted lysate
# T2 sequence (P51449 269-508 limits assumed): T1 sequence (P51449 269-508 limits assumed)
# Summary of the method: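 Compounds, diluted in DMSO and then in assay buffer (1% DMSO final), were combined with His-tagged RORγ-LBD lysate at roughly 3 nM final and a 200 nM biotinylated SRC1 LXXLL peptide. Ursolic acid was included at 2 μM final. Coactivator recruitment was detected by TR-FRET.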
# [1] = luciferase reporter, with ursolic acid
# [2] = luciferase reporter, in presence of ursolic acid
SMILES,EC50 (Gal4-RORγ-LBD; [1]) [µM],EC50 (RORγ-LBD; RORγ-LBD TR-FRET) [µM],further results
"CCOc1nn(CC)cc1S(=O)(=O)N1C[C@H](CCC(=O)OC)Oc2ccc(/C=C/c3c(Cl)cccc3C(C)(F)F)cc21 [Example 89FF, methyl (S,E)-3-(6-(2-chloro-6-(1,1-difluoroethyl)styryl)-4-((3-ethoxy-1-ethyl-1H-pyrazol-4-yl)sulfonyl)-3,4-dihydro-2H-benzo[b][1,4]oxazin-2-yl)propanoate]",0.5 to 5,< 0.5,–
"COC(=O)CC[C@H]1CN(S(=O)(=O)c2cccc(C(F)(F)F)c2)c2cc(/C=C/c3ccccn3)ccc2O1 [Example 89DH, methyl (S,E)-3-(6-(2-(pyridin-2-yl)vinyl)-4-((3-(trifluoromethyl)phenyl)sulfonyl)-3,4-dihydro-2H-benzo[b][1,4]oxazin-2-yl)propanoate]",0.5 to 5,< 0.5,–
"COc1ccccc1/C=C/c1ccc2c(c1)N(S(=O)(=O)c1cccc(OC(F)F)c1)C[C@H](CCC(=O)O)O2 [Example 89AY, (S,E)-3-(4-((3-(difluoromethoxy)phenyl)sulfonyl)-6-(2-methoxystyryl)-3,4-dihydro-2H-benzo[b][1,4]oxazin-2-yl)propanoic acid]",0.5 to 5,< 0.5,–
"C/C(=C\c1ccc2c(c1C)N(S(=O)(=O)c1cccc(C(F)(F)F)c1)C[C@H](CCC(=O)O)O2)c1c(F)cccc1Cl [Example 58, (S,E)-3-(6-(2-(2-Chloro-6-fluorophenyl)prop-1-en-1-yl)-5-methyl-4-((3-(trifluoromethyl)phenyl)sulfonyl)-3,4-dihydro-2H-benzo[b][1,4]oxazin-2-yl)propanoic acid]",0.5 to 5,< 0.5,–
"O=C(O)CC[C@H]1CN(S(=O)(=O)c2cc(C(F)(F)F)cnc2OCCO)c2cc(/C=C/c3c(Cl)cccc3C(F)F)ccc2O1 [Example 89EM, (S,E)-3-(6-(2-chloro-6-(difluoromethyl)styryl)-4-((2-(2-hydroxyethoxy)-5-(trifluoromethyl)pyridin-3-yl)sulfonyl)-3,4-dihydro-2H-benzo[b][1,4]oxazin-2-yl)propanoic acid]",< 0.5,< 0.5,–
"C/C(=C\c1ccc2c(c1)N(S(=O)(=O)c1cccc(C(F)(F)F)c1)C[C@H](CCC(=O)N(C)CCC(=O)O)O2)c1c(F)cccc1Cl [Example 129Q, (S,E)-3-(3-(6-(2-(2-chloro-6-fluorophenyl)prop-1-en-1-yl)-4-((3-(trifluoromethyl)-phenyl)sulfonyl)-3,4-dihydro-2H-benzo[b][1,4]-oxazin-2-yl)-N-methyl-propanamido)-propanoic acid]",–,–,"EC50 (Gal4-RORγ-LBD; ursolic acid present, luciferase readout): < 0.5 µM; EC50 (RORγ-LBD; with 2 μM ursolic acid (RORγ antagonist), highest test concentration 10 μM): < 0.5 µM"
"CC(F)(F)c1cccc(S(=O)(=O)N2C[C@H](CCC(=O)O)Oc3ccc(/C=C/c4c(Cl)cccc4C(F)(F)F)cc32)c1 [Example 84, (S,E)-3-(6-(2-Chloro-6-(trifluoromethyl)styryl)-4-((3-(1,1-difluoroethyl)phenyl)sulfonyl)-3,4-dihydro-2H-benzo[b][1,4]oxazin-2-yl)propanoic acid]",< 0.5,< 0.5,–
"C/C(=C\c1ccc2c(c1)N(S(=O)(=O)c1cccc(C(F)(F)F)c1)CCS2)c1c(F)cccc1Cl [Example 187, (E)-6-(2-(2-Chloro-6-fluorophenyl)prop-1-en-1-yl)-4-((3-(trifluoromethyl)phenyl)sulfonyl)-3,4-dihydro-2H-benzo[b][1,4]thiazine]",–,–,EC50 (Gal4-RORγ-LBD; [2]): < 0.5 µM; Gal4-RORγ Assay Max Response (Gal4-RORγ-LBD; [2]): ** (a value in the range of greater than 90 to 150); EC50 (RORγ-LBD; RORγ-LBD TR-FRET assay): < 0.5 µM; TR-FRET Assay Max Response (RORγ-LBD; RORγ-LBD TR-FRET assay): **** (a value greater than 200)
"CCOc1ncc(C(F)(F)F)cc1S(=O)(=O)N1C[C@H](CCC(=O)OC)Oc2ccc(/C=C(\C)c3c(Cl)cccc3C(F)(F)F)cc21 [Example 76, Methyl (S,E)-3-(6-(2-(2-chloro-6-(trifluoromethyl)phenyl)prop-1-en-1-yl)-4-((2-ethoxy-5-(trifluoromethyl)pyridin-3-yl)sulfonyl)-3,4-dihydro-2H-benzo[b][1,4]oxazin-2-yl)propanoate]",0.5 to 5,< 0.5,–
"C/C(=C\c1ccc2c(c1)N(S(=O)(=O)c1cccc(C(F)(F)F)c1)C[C@H](CC(C)(C)O)O2)c1c(F)cccc1Cl [Example 121A, (S,E)-1-(6-(2-(2-chloro-6-fluorophenyl)prop-1-en-1-yl)-4-((3-(trifluoromethyl)-phenyl)sulfonyl)-3,4-dihydro-2H-benzo[b][1,4]oxazin-2-yl)-2-methylpropan-2-ol]",–,–,EC50 (Gal4-RORγ-LBD; [2]): < 0.5 µM; Gal4-RORγ Assay Max Response (Gal4-RORγ-LBD; [2]): ** (a value in the range of greater than 90 to 150); EC50 (RORγ-LBD; RORγ-LBD TR-FRET assay): < 0.5 µM; TR-FRET Assay Max Response (RORγ-LBD; RORγ-LBD TR-FRET assay): *** (a value in the range of greater than 150 to 200)
"CC(F)(F)c1cccc(Cl)c1/C=C/c1ccc2c(c1)N(S(=O)(=O)c1cccc(C(F)(F)F)c1)C[C@H](CCC(=O)O)O2 [Example 89EV, (S,E)-3-(6-(2-chloro-6-(1,1-difluoroethyl)styryl)-4-((3-(trifluoromethyl)phenyl)-sulfonyl)-3,4-dihydro-2H-benzo[b][1,4]oxazin-2-yl)propanoic acid]",5 to 10,< 0.5,–
"C/C(=C\c1ccc2c(c1)N(S(=O)(=O)c1cccc(C(F)(F)F)c1)C[C@H](CCN1CCS(=O)(=O)CC1)O2)c1c(F)cccc1Cl [Example 119G, (S,E)-4-(2-(6-(2-(2-chloro-6-fluorophenyl)prop-1-en-1-yl)-4-((3-(trifluoromethyl)phenyl)sulfonyl)-3,4-dihydro-2H-benzo[b][1,4]oxazin-2-yl)ethyl)thiomorpholine 1,1-dioxide]",–,–,EC50 (Gal4-RORγ-LBD; [2]): < 0.5 µM; Gal4-RORγ Assay Max Response (Gal4-RORγ-LBD; [2]): * (a value in the range of 30 to 90); EC50 (RORγ-LBD; RORγ-LBD TR-FRET assay): < 0.5 µM; TR-FRET Assay Max Response (RORγ-LBD; RORγ-LBD TR-FRET assay): *** (a value in the range of greater than 150 to 200)
"CCOc1nn(CC)cc1S(=O)(=O)N1C[C@H](CCC(=O)OC)Oc2ccc(/C=C/c3ccccc3SC)cc21 [Example 89AV, (S,E)-methyl 3-(4-((3-ethoxy-1-ethyl-1H-pyrazol-4-yl)sulfonyl)-6-(2-(methylthio)styryl)-3,4-dihydro-2H-benzo[b][1,4]oxazin-2-yl)propanoate]",< 0.5,< 0.5,–
"COC(=O)CC[C@H]1CN(S(=O)(=O)c2cc(C(F)(F)F)cnc2OCCO)c2cc(C=C(C)C)ccc2O1 [Example 95AD, methyl (S)-3-(4-((2-(2-hydroxyethoxy)-5-(trifluoromethyl)pyridin-3-yl)sulfonyl)-6-(2-methylprop-1-en-1-yl)-3,4-dihydro-2H-benzo[b][1,4]oxazin-2-yl)propanoic acid]",0.5 to 5,< 0.5,–
"CC/C(C)=C\c1ccc2c(c1)N(S(=O)(=O)c1cc(C(F)(F)F)cnc1OCCO)C[C@H](CCC(=O)O)O2 [Example 191D, (S,Z)-3-(4-((2-(2-hydroxyethoxy)-5-(trifluoromethyl)pyridin-3-yl)sulfonyl)-6-(2-methylbut-1-en-1-yl)-3,4-dihydro-2H-benzo[b][1,4]oxazin-2-yl)propanoic acid]",–,–,EC50 (Gal4-RORγ-LBD; [2]): > 10 µM; EC50 (RORγ-LBD; RORγ-LBD TR-FRET assay): < 0.5 µM; TR-FRET Assay Max Response (RORγ-LBD; RORγ-LBD TR-FRET assay): ** (a value in the range of greater than 90 to 150)
"CCOc1nn(CC)cc1S(=O)(=O)N1C[C@H](CCC(=O)O)Oc2ccc(/C=C/c3c(Cl)cccc3C(F)(F)F)cc21 [Example 89DO, (S,E)-3-(6-(2-chloro-6-(trifluoromethyl)styryl)-4-((3-ethoxy-1-ethyl-1H-pyrazol-4-yl)sulfonyl)-3,4-dihydro-2H-benzo[b][1,4]oxazin-2-yl)propanoic acid]",< 0.5,< 0.5,–
"C/C(=C\c1c(F)cccc1Cl)c1ccc2c(c1)N(S(=O)(=O)c1cccc(C(F)(F)F)c1)C[C@H](CCC(=O)O)O2 [Example 32, (S,E)-3-(6-(1-(2-Chloro-6-fluorophenyl)prop-1-en-2-yl)-4-((3-(trifluoromethyl)phenyl)sulfonyl)-3,4-dihydro-2H-benzo[b][1,4]oxazin-2-yl)propanoic acid]",5 to 10,< 0.5,–
"CCOc1nn(CC)cc1S(=O)(=O)N1C[C@H](CCC(=O)OC)Oc2ccc(/C=C(\C)c3c(F)cccc3Cl)cc21 [Example 86J, (S,E)-methyl 3-(6-(2-(2-chloro-6-fluorophenyl)prop-1-en-1-yl)-4-((3-ethoxy-1-ethyl-1H-pyrazol-4-yl)sulfonyl)-3,4-dihydro-2H-benzo[b][1,4]oxazin-2-yl)propanoate]",< 0.5,< 0.5,–
"COc1cc(S(=O)(=O)N2CCCc3ccc(OCc4c(Cl)cccc4C(F)(F)F)cc32)ccc1F [Example 25Q, 7-((2-chloro-6-(trifluoromethyl)benzyl)oxy)-1-((4-fluoro-3-methoxyphenyl)sulfonyl)-1,2,3,4-tetrahydroquinoline]",< 0.5,< 0.5,–
"COc1cc(S(=O)(=O)N2C[C@H](CC(C)(C)C(=O)O)Cc3ccc(/C=C(\C)c4c(F)cccc4Cl)cc32)ccc1F [Example 154C, (S,E)-3-(7-(2-(2-chloro-6-fluorophenyl)prop-1-en-1-yl)-1-((4-fluoro-3-methoxyphenyl)sulfonyl)-1,2,3,4-tetrahydroquinolin-3-yl)-2,2-dimethylpropanoic acid]",–,–,EC50 (Gal4-RORγ-LBD; [2]): 0.5 to 5 µM; Gal4-RORγ Assay Max Response (Gal4-RORγ-LBD; [2]): ** (a value in the range of greater than 90 to 150); EC50 (RORγ-LBD; RORγ-LBD TR-FRET assay): < 0.5 µM; TR-FRET Assay Max Response (RORγ-LBD; RORγ-LBD TR-FRET assay): ** (a value in the range of greater than 90 to 150)
